In the NIST ThermoML archive (doi:10.1021/je050020m):
± gives the expanded uncertainty stated by the source.

Assay: xn = mol fraction of the nth substance listed
Details: Liquid, Vibrating tube method

CCCCCCCCCC [decane] + O=C=O
Details	mass density [kg/m3]
352.78 K, 12025 kPa, x2 = 0.0551	697.67 ± 0.59
352.78 K, 13009 kPa, x2 = 0.0551	698.59 ± 0.59
352.78 K, 14003 kPa, x2 = 0.0551	699.6 ± 0.59
352.78 K, 15017 kPa, x2 = 0.0551	700.5 ± 0.6
352.78 K, 16009 kPa, x2 = 0.0551	701.58 ± 0.6
352.78 K, 17043 kPa, x2 = 0.0551	702.49 ± 0.61
352.78 K, 18011 kPa, x2 = 0.0551	703.38 ± 0.62
352.78 K, 18999 kPa, x2 = 0.0551	704.26 ± 0.62
352.78 K, 19980 kPa, x2 = 0.0551	705.14 ± 0.63
352.78 K, 21012 kPa, x2 = 0.0551	706.06 ± 0.63
352.78 K, 22017 kPa, x2 = 0.0551	706.96 ± 0.64
352.78 K, 23034 kPa, x2 = 0.0551	707.84 ± 0.64
352.78 K, 24044 kPa, x2 = 0.0551	708.75 ± 0.65
352.78 K, 24991 kPa, x2 = 0.0551	709.57 ± 0.65
352.79 K, 6023 kPa, x2 = 0.2369	695.17 ± 0.52
352.79 K, 7016 kPa, x2 = 0.2369	696.39 ± 0.53
352.79 K, 8017 kPa, x2 = 0.2369	697.7 ± 0.53
352.79 K, 9014 kPa, x2 = 0.2369	698.95 ± 0.54
352.79 K, 10006 kPa, x2 = 0.2369	700.1 ± 0.54
352.79 K, 11019 kPa, x2 = 0.2369	701.32 ± 0.55
352.79 K, 12015 kPa, x2 = 0.2369	702.48 ± 0.55
352.79 K, 13014 kPa, x2 = 0.2369	703.71 ± 0.56
352.79 K, 14010 kPa, x2 = 0.2369	704.77 ± 0.56
352.79 K, 15002 kPa, x2 = 0.2369	705.93 ± 0.57
352.79 K, 16000 kPa, x2 = 0.2369	707.03 ± 0.57
352.79 K, 17020 kPa, x2 = 0.2369	708.08 ± 0.58
352.79 K, 18006 kPa, x2 = 0.2369	709.15 ± 0.58
352.79 K, 19014 kPa, x2 = 0.2369	710.21 ± 0.59
352.79 K, 19955 kPa, x2 = 0.2369	711.22 ± 0.59
352.79 K, 21069 kPa, x2 = 0.2369	712.3 ± 0.6
352.79 K, 22042 kPa, x2 = 0.2369	713.3 ± 0.6
352.79 K, 23032 kPa, x2 = 0.2369	714.28 ± 0.61
352.79 K, 24057 kPa, x2 = 0.2369	715.33 ± 0.61
352.79 K, 24999 kPa, x2 = 0.2369	716.29 ± 0.62
352.8 K, 8029 kPa, x2 = 0.4536	702.49 ± 0.5
352.8 K, 9011 kPa, x2 = 0.4536	704.17 ± 0.5
352.8 K, 10022 kPa, x2 = 0.4536	705.86 ± 0.51
352.8 K, 11012 kPa, x2 = 0.4536	707.47 ± 0.51
352.8 K, 12018 kPa, x2 = 0.4536	709.07 ± 0.65
352.8 K, 13013 kPa, x2 = 0.4536	710.62 ± 0.52
352.8 K, 14019 kPa, x2 = 0.4536	712.14 ± 0.53
352.8 K, 15017 kPa, x2 = 0.4536	713.63 ± 0.53
352.8 K, 16008 kPa, x2 = 0.4536	715.06 ± 0.54
352.8 K, 17028 kPa, x2 = 0.4536	716.51 ± 0.54
352.8 K, 18018 kPa, x2 = 0.4536	717.9 ± 0.55
352.8 K, 19024 kPa, x2 = 0.4536	719.28 ± 0.55
352.8 K, 20015 kPa, x2 = 0.4536	720.6 ± 0.56
352.8 K, 21003 kPa, x2 = 0.4536	721.91 ± 0.56
352.8 K, 22029 kPa, x2 = 0.4536	723.29 ± 0.57
352.8 K, 23006 kPa, x2 = 0.4536	724.51 ± 0.57
352.8 K, 24025 kPa, x2 = 0.4536	725.86 ± 0.58
352.8 K, 25013 kPa, x2 = 0.4536	727.09 ± 0.58
362.63 K, 15022 kPa, x2 = 0.8114	681.16 ± 1.2
362.63 K, 16023 kPa, x2 = 0.8114	688.18 ± 0.72
362.63 K, 17027 kPa, x2 = 0.8114	694.15 ± 0.68
362.63 K, 18027 kPa, x2 = 0.8114	699.67 ± 0.66
362.63 K, 19028 kPa, x2 = 0.8114	704.83 ± 0.64
362.63 K, 20026 kPa, x2 = 0.8114	709.67 ± 0.62
362.63 K, 21017 kPa, x2 = 0.8114	714.17 ± 0.61
362.63 K, 22023 kPa, x2 = 0.8114	718.48 ± 0.6
362.63 K, 23019 kPa, x2 = 0.8114	722.51 ± 0.6
362.63 K, 24030 kPa, x2 = 0.8114	726.42 ± 0.59
362.63 K, 25024 kPa, x2 = 0.8114	730.11 ± 0.74
362.65 K, 5978 kPa, x2 = 0.2369	686.43 ± 0.52
362.65 K, 7016 kPa, x2 = 0.2369	687.86 ± 0.53
362.65 K, 8020 kPa, x2 = 0.2369	689.21 ± 0.53
362.65 K, 9035 kPa, x2 = 0.2369	690.58 ± 0.54
